# Data published in patent US10669268B2, “Bicyclic derivatives” (Hoffmann-La Roche Inc., priority 2012, dated 2020).
# Molecular target: ATX (human His-tagged) (Homo sapiens (Human), UniProt Q13822)
# Experiment: Human ATX enzyme inhibition assay (fluorescence quenching, MR121 substrate)
# Assay type: biochemical
# Details: 30 nM ATX, 1 μM MR121 substrate, 30° C., pH 8.0
# Description: Human ATX Enzyme Inhibition Assay
# Assay working solutions were made as follows:
# Assay buffer (50 mM Tris-HCl, 140 mM NaCl, 5 mM KCl, 1 mM CaCl2, 1 mM MgCl2, 0.01% Triton-X-100, pH 8.0;
# MR121 substrate solution: MR121 substrate stock solution (800 μM MR121 substrate in DMSO), diluted to 2-5× final concentration in assay buffer.
# 10 μL of MR121 substrate solution was added (1 μM final concentration), mixed 30 times and then incubated for 15 minutes at 30° C.
row,SMILES,IC50 [nM]
1,"O=C1NC2CCC(C(=O)N3CC4CCN(C(=O)/C=C/c5ccc(OC(F)(F)F)cc5)CCC4C3)CC2O1 (stereo in doubt) [Example 1.16, (3aSR,6SR,7aSR)-6-{(3aR,8aS)-6-[(E)-3-(4-trifluoromethoxy-phenyl)-acryloyl]-octahydro-pyrrolo[3,4-d]azepine-2-carbonyl}-hexahydro-benzooxazol-2-one]",382
2,O=C(/C=C/c1ccc(OC(F)(F)F)cc1)N1CC[C@@H]2CN(C(=O)NCc3nnc[nH]3)C[C@@H]2CC1 [Example 9.04],713
3,"O=C(OCc1cc(Cl)cc(Cl)c1)N1C[C@@H]2CN(C(=O)c3ccc4[nH]nnc4c3)C[C@H]2C1 [Example 4, (3aS,6aS)-3,5-Dichlorobenzyl 5-(1H-benzo[d][1,2,3]triazole-5-carbonyl)hexahydro-pyrrolo[3,4-c]pyrrole-2(1H)-carboxylate]",8
4,"COc1ccc(/C=C/C(=O)N2CC[C@@H]3CN(C(=O)c4ccc5[nH]nnc5c4)C[C@@H]3CC2)cc1F [Example 1.19, (E)-1-((3aR,8aS)-2-(1H-benzo[d][1,2,3]triazole-5-carbonyl)octahydropyrrolo[3,4-d]azepin-6(7H)-yl)-3-(3-fluoro-4-methoxyphenyl)prop-2-en-1-one]",12
5,"O=C(OCc1ccc(OCC(F)(F)F)cc1)N1CC[C@@H]2CN(C(=O)c3ccc4[nH]nnc4c3)C[C@@H]2CC1 [Example 1.48, (3aS,8aR)-2-(1H-benzotriazole-5-carbonyl)-octahydro-pyrrolo[3,4-d]azepine-6-carboxylic acid 4-(2,2,2-trifluoro-ethoxy)-benzyl ester]",7.5
6,"Cc1cc(OC(F)(F)F)ccc1/C=C/C(=O)N1CC[C@@H]2CN(C(=O)c3ccc4[nH]nnc4c3)C[C@@H]2CC1 [Example 1.18, (E)-1-((3aR,8aS)-2-(1H-benzo[d][1,2,3]triazole-5-carbonyl)octahydropyrrolo[3,4-d]azepin-6(7H)-yl)-3-(2-methyl-4-(trifluoromethoxy)phenyl)prop-2-en-1-one]",10
7,"O=C(OCc1ccc(OC(F)(F)F)cc1)N1CC[C@@H]2CN(C(=O)c3ccc4[nH]nnc4c3)C[C@H]2C1 (relative stereo) [Example 1.24, trans-2-(1H-benzotriazole-5-carbonyl)-octahydro-pyrrolo[3,4-c]pyridine-5-carboxylic acid 4-trifluoromethoxy-benzyl ester]",13
8,"O=C(OCc1ccc(OCC(F)(F)F)cc1F)N1CC[C@@H]2CN(C(=O)c3ccc4[nH]nnc4c3)C[C@@H]2CC1 [Example 1.47, (3aS,8aR)-2-(1H-benzotriazole-5-carbonyl)-octahydro-pyrrolo[3,4-d]azepine-6-carboxylic acid 2-fluoro-4-(2,2,2-trifluoro-ethoxy)-benzyl ester]",2
9,"O=C(OCc1cc(Cl)cc(Cl)c1)N1C[C@H]2CN(C(=O)c3ccc4[nH]nnc4c3)C[C@@H]2C1 [Example 4.02, (3aR,6aR)-3,5-dichlorobenzyl 5-(1H-benzo[d][1,2,3]triazole-5-carbonyl)hexahydropyrrolo[3,4-c]pyrrole-2(1H)-carboxylate]",11
10,"CS(=O)(=O)c1cc(COC(=O)N2C[C@@H]3CN(C(=O)c4ccc5[nH]nnc5c4)C[C@@H]3C2)cc(C(F)(F)F)c1 [Example 4.07, (3aS,6aR)-5-(1H-benzotriazole-5-carbonyl)-hexahydro-pyrrolo[3,4-c]pyrrole-2-carboxylic acid 3-methanesulfonyl-5-trifluoromethyl-benzyl ester]",16
11,"O=C(OCc1cc(F)cc(OC(F)(F)F)c1)N1C[C@@H]2CN(C(=O)c3ccc4[nH]nnc4c3)C[C@@H]2C1 [Example 4.23, (3aS,6aR)-5-(1H-benzotriazole-5-carbonyl)-hexahydro-pyrrolo[3,4-c]pyrrole-2-carboxylic acid 3-fluoro-5-trifluoromethoxy-benzyl ester]",17

# Other lines, results leading:
row,IC50 [nM],SMILES
1,5,O=C(/C=C/c1ccc(OC(F)(F)F)cc1F)N1CC[C@@H]2CN(C(=O)c3ccc4[nH]nnc4c3)C[C@@H]2CC1 [Example 15.39]
2,7,"O=C(c1ccc(-c2ccc(Cl)cc2)cc1)N1C[C@@H]2CN(C(=O)c3ccc4[nH]nnc4c3)C[C@H]2C1 [Example 19.02, (1H-benzotriazol-5-yl)-[(3aR,6aR)-5-(4′-chloro-biphenyl-4-carbonyl)-hexahydro-pyrrolo[3,4-c]pyrrol-2-yl]-methanone]"
3,1620,O=C(c1ccc2[nH]nnc2c1)N1C[C@@H]2CN(C(=O)c3cc4cc(Cl)ccc4[nH]3)C[C@@H]2C1 [Example 15.01]
4,19,"O=C(/C=C/c1ccc(-c2ccccn2)cc1)N1C[C@@H]2CN(C(=O)c3ccc4[nH]nnc4c3)C[C@H]2C1 [Example 15.81, (E)-1-[(3aR,6aR)-5-(1H-benzotriazole-5-carbonyl)-hexahydro-pyrrolo[3,4-c]pyrrol-2-yl]-3-(4-pyridin-2-yl-phenyl)-prop-2-en-1-one]"
5,171,CS(=O)(=O)c1ccc(/C=C/C(=O)N2CC[C@@H]3CN(C(=O)c4ccc5[nH]nnc5c4)C[C@@H]3CC2)cc1 [Example 15.68]
6,25,"O=C(c1ccc2[nH]nnc2c1)N1C[C@H]2CN(C(=O)C3CCN(c4ccc(Cl)cc4)CC3)C[C@@H]2C1 [Example 19.23, [(3aR,6aR)-5-[1-(4-chlorophenyl)piperidine-4-carbonyl]-1,3,3a,4,6,6a-hexahydropyrrolo[3,4-c]pyrrol-2-yl]-(1H-benzotriazol-5-yl)methanone]"
7,305,"O=C(c1ccc2[nH]nnc2c1)N1C[C@H]2CN(C(=O)N3CCN(c4ccc(Cl)cc4)CC3)C[C@@H]2C1 [Example 20.01, (1H-benzotriazol-5-yl)-{(3aS,6aS)-5-[4-(4-chloro-phenyl)-piperazine-1-carbonyl]-hexahydro-pyrrolo[3,4-c]pyrrol-2-yl}-methanone]"
8,14,"COc1ccc(CCC(=O)N2CC[C@@H]3CN(C(=O)c4ccc5[nH]nnc5c4)C[C@@H]3CC2)c(C(F)(F)F)c1 [Example 17.18, 1-((3aR,8aS)-2-(1H-benzo[d][1,2,3]triazole-5-carbonyl)octahydropyrrolo[3,4-d]azepin-6(7H)-yl)-3-(4-methoxy-2-(trifluoromethyl)phenyl)propan-1-one]"
9,36,"CCOc1cc(C#N)ccc1OCC(=O)N1C[C@@H]2CN(C(=O)c3ccc4[nH]nnc4c3)C[C@H]2C1 [Example 19.08, 4-{2-[(3aS,6aS)-5-(1H-benzotriazole-5-carbonyl)-hexahydro-pyrrolo[3,4-c]pyrrol-2-yl]-2-oxo-ethoxy}-3-ethoxy-benzonitrile]"
10,96,COc1cc(/C=C/C(=O)N2C[C@@H]3CN(C(=O)c4ccc5[nH]nnc5c4)C[C@H]3C2)cc(OC)c1 [Example 15.47]
11,9,"O=C(/C=C/c1ccc(C(F)(F)F)cn1)N1C[C@@H]2CN(C(=O)c3ccc4[nH]nnc4c3)C[C@H]2C1 [Example 15.78, (E)-1-[(3aR,6aR)-5-(1H-benzotriazole-5-carbonyl)-hexahydro-pyrrolo[3,4-c]pyrrol-2-yl]-3-(5-trifluoromethyl-pyridin-2-yl)-prop-2-en-1-one]"
